This is an account of results in patent US20230167127A1, “COMPOUNDS AND THEIR USE IN THE TREATMENT OF BACTERIAL INFECTION” (Hoffmann-La Roche Inc., priority 2020, published 2023).

Where only a bound is given, the exact number is not on record here.

The test has as its system Escherichia coli ATCC 25922. In words: 50% growth inhibitory concentration (IC50) determination, Iso-Sensitest broth dilution. It is filed as cell-based. The conditions noted are these: Escherichia coli, ATCC25922, 16 h, strain Escherichia coli ATCC 25922; 10-point broth dilution, optical density at 600 nm over 16 h; read-out: Escherichia coli growth inhibition IC50. Put shortly:
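10-point twofold Iso-Sensitest broth dilution (e.g. 50 to 0.097 μM final) with DMSO stocks, incubated at 35±2° C. Growth followed by OD 600 nm every 20 min over 16 h; IC50 derived from growth inhibition during logarithmic phase.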
Background: In broth dilution the organism is exposed to a series of concentrations in liquid medium.
As for `CS(=O)(=O)NCCOc1ccc2c(c1C#N)CC(CNCCC1CN(c3ccc4c(n3)NC(=O)CO4)C(=O)O1)C2` (stereo not shown) [Example 59, N-[2-[[4-cyano-2-[[2-[2-oxo-3-(3-oxo-4H-pyrido[3,2-b][1,4]oxazin-6-yl)-1,3-oxazolidin-5-yl]ethylamino]methyl]-2,3-dihydro-1H-inden-5-yl]oxy]ethyl]methanesulfonamide], the half-inhibitory concentration (IC50) – broadly, the midpoint of a concentration-inhibition curve – stood at 253 nM.
The value for `NC1(CCNCC2Cc3cccc(Cl)c3C2)CC(=O)N(c2ccc3c(n2)NC(=O)CO3)C1` (stereo not shown) [Example 140, 6-[4-amino-4-[2-[(4-chloro-2,3-dihydro-1H-inden-2-yl)methylamino]ethyl]-2-oxopyrrolidin-1-yl]-4H-pyrido[3,2-b][1,4]oxazin-3-one] was 314 nM.
Take `N#Cc1cccc2c1CC(CNC[C@H](O)[C@@H]1CN(c3ccc4c(c3)NC(=O)CO4)C(=O)O1)C2` (stereo partly drawn) [Example 62, 2-[[[(2S)-2-hydroxy-2-[(5S)-2-oxo-3-(3-oxo-4H-1,4-benzoxazin-6-yl)-1,3-oxazolidin-5-yl]ethyl]amino]methyl]-2,3-dihydro-1H-indene-4-carbonitrile; formic acid]: the IC50 was found to be 208 nM.
On to `CS(=O)(=O)CCOc1cc(F)c2c(c1)CC(CNCCC1CN(c3cnc4c(n3)NC(=O)CO4)C(=O)O1)C2` (stereo not shown) [Example 353, 6-[5-[2-[[4-fluoro-6-(2-methylsulfonylethoxy)-2,3-dihydro-1H-inden-2-yl]methylamino]ethyl]-2-oxo-1,3-oxazolidin-3-yl]-4H-pyrazino[2,3-b][1,4]oxazin-3-one; formic acid], for which the half-maximal inhibitory concentration (IC50) stood at 170 nM.
On to `CC(C)(N)COc1cc(F)c2c(c1F)CC(CNCCC1CN(c3cnc4c(n3)NC(=O)CO4)C(=O)O1)C2` (stereo not shown) [Example 411, 6-[5-[2-[[5-(2-amino-2-methylpropoxy)-4,7-difluoro-2,3-dihydro-1H-inden-2-yl]methylamino]ethyl]-2-oxo-1,3-oxazolidin-3-yl]-4H-pyrazino[2,3-b][1,4]oxazin-3-one; formic acid], for which the IC50 was < 97.7 nM.
As for `N#Cc1cccc2c1CC(CNCCC1CN(c3cnc4c(n3)NC(=O)CO4)C(=O)O1)C2` (stereo not shown) [Example 35, 2-[[2-[2-oxo-3-(3-oxo-4H-pyrazino[2,3-b][1,4]oxazin-6-yl)-1,3-oxazolidin-5-yl]ethylamino]methyl]-2,3-dihydro-1H-indene-4-carbonitrile], the IC50 was < 97.7 nM.
The value for `Cc1ncc(Cl)c2c1CC(CNCCC1CN(c3cnc4c(n3)NC(=O)CO4)C(=O)O1)C2` (stereo not shown) [Example 60, 6-[5-[2-[(4-chloro-1-methyl-6,7-dihydro-5H-cyclopenta[c]pyridin-6-yl)methylamino]ethyl]-2-oxo-1,3-oxazolidin-3-yl]-4H-pyrazino[2,3-b][1,4]oxazin-3-one; formic acid] was < 97.7 nM; that for `N#Cc1cccc2c1CC(CN1CCC3(CC1)CN(c1cnc4c(n1)NC(=O)CO4)C(=O)O3)C2` (stereo not shown) [Example 261, 2-[[2-Oxo-3-(3-oxo-4H-pyrazino[2,3-b][1,4]oxazin-6-yl)-1-oxa-3,8-diazaspiro[4.5]decan-8-yl]methyl]-2,3-dihydro-1H-indene-4-carbonitrile; formic acid] was < 97.7 nM.
For `NC1(COc2cc(F)c3c(c2F)CC(CNCCC2CN(c4ccc5c(n4)NC(=O)CO5)C(=O)O2)C3)CC1` (stereo not shown) [Example 409, 6-[5-[2-[[5-[(1-aminocyclopropyl)methoxy]-4,7-difluoro-2,3-dihydro-1H-inden-2-yl]methylamino]ethyl]-2-oxo-1,3-oxazolidin-3-yl]-4H-pyrido[3,2-b][1,4]oxazin-3-one; formic acid] the value was < 97.7 nM.
For `C[C@@H](N)COc1cc(F)c2c(c1)CC(CN1CCC3(CC1)CN(c1cnc4c(n1)NC(=O)CO4)C(=O)O3)C2` (stereo partly drawn) [Example 357, 6-[8-[[6-[(2R)-2-aminopropoxy]-4-fluoro-2,3-dihydro-1H-inden-2-yl]methyl]-2-oxo-1-oxa-3,8-diazaspiro[4.5]decan-3-yl]-4H-pyrazino[2,3-b][1,4]oxazin-3-one; formic acid] the value was < 97.7 nM; for `O=C1COc2ccc(N3CC(CCNCC4Cc5cccc(Cl)c5C4)OC3=O)cc2N1` (stereo not shown) [Example 15, 6-[5-[2-[(4-chloro-2,3-dihydro-1H-inden-2-yl)methylamino]ethyl]-2-oxo-1,3-oxazolidin-3-yl]-4H-1,4-benzoxazin-3-one; formic acid], 188 nM; for `Cc1c(F)cnc2c1CC(CNCCC1CN(c3cnc4c(n3)NC(=O)CO4)C(=O)O1)C2` (stereo not shown) [Example 299, 6-[5-[2-[(3-fluoro-4-methyl-6,7-dihydro-5H-cyclopenta[b]pyridin-6-yl)methylamino]ethyl]-2-oxo-1,3-oxazolidin-3-yl]-4H-pyrazino[2,3-b][1,4]oxazin-3-one], < 97.7 nM.
For the molecule `Cc1cnc(-c2nc(OCC3(N)CC3)c(C)c3c2CC(CNCCC2CN(c4ccc5c(n4)NC(=O)CO5)C(=O)O2)C3)s1` (stereo not shown) [Example 216, 6-[5-[2-[[3-[(1-aminocyclopropyl)methoxy]-4-methyl-1-(5-methyl-1,3-thiazol-2-yl)-6,7-dihydro-5H-cyclopenta[c]pyridin-6-yl]methylamino]ethyl]-2-oxo-1,3-oxazolidin-3-yl]-4H-pyrido[3,2-b][1,4]oxazin-3-one], the IC50 stood at 211 nM.
For the molecule `Cc1ncc(C#N)c2c1CC(CNCC[C@H]1CN(c3cnc4c(n3)NC(=O)CO4)C(=O)O1)C2` (stereo partly drawn) [Example 364, 1-methyl-6-[[2-[(5S)-2-oxo-3-(3-oxo-4H-pyrazino[2,3-b][1,4]oxazin-6-yl)-1,3-oxazolidin-5-yl]ethylamino]methyl]-6,7-dihydro-5H-cyclopenta[c]pyridine-4-carbonitrile], the IC50 was < 97.7 nM.
As to `O=C1COc2ccc(N3CC(CNCC4Cc5cccc(Cl)c5C4)OC3=O)nc2N1` (stereo not shown) [Example 21, 6-[5-[[(4-chloro-2,3-dihydro-1H-inden-2-yl)methylamino]methyl]-2-oxo-1,3-oxazolidin-3-yl]-4H-pyrido[3,2-b][1,4]oxazin-3-one; formic acid], the half-inhibitory concentration (IC50) is 453 nM.
The value for `O=C1COc2ncc(N3CC(CCNCC4Cc5nccc(F)c5C4)OC3=O)nc2N1` (stereo not shown) [Example 318, 6-[5-[2-[(4-fluoro-6,7-dihydro-5H-cyclopenta[b]pyridin-6-yl)methylamino]ethyl]-2-oxo-1,3-oxazolidin-3-yl]-4H-pyrazino [2,3-b][1,4]oxazin-3-one] was < 97.7 nM; that for `Cc1ncc(Cl)c2c1CC(CNCCC1CN(c3ccc4c(n3)NC(=O)CO4)C(=O)O1)C2N` (racemic) [Example 262, 6-[5-[2-[(rac-5,6-trans-5-Amino-4-chloro-1-methyl-6,7-dihydro-5H-cyclopenta[c]pyridin-6-yl)methylamino]ethyl]-2-oxo-1,3-oxazolidin-3-yl]-4H-pyrido[3,2-b][1,4]oxazin-3-one; formic acid] was < 97.7 nM.
With `N#Cc1cccc2c1CC(CN1CCC3(CC1)CN(c1ccc4c(n1)NC(=O)CO4)C(=O)O3)C2N` (racemic) [Example 131, rac-1,2-trans-1-amino-2-[[2-oxo-3-(3-oxo-4H-pyrido[3,2-b][1,4]oxazin-6-yl)-1-oxa-3,8-diazaspiro[4.5]decan-8-yl]methyl]-2,3-dihydro-1H-indene-4-carbonitrile; formic acid], the IC50 was found to be 240 nM.
In the case of `NC1c2cc(OCC3(N)CC3)cc(Cl)c2CC1CNCCC1CN(c2ccc3c(n2)NC(=O)CO3)C(=O)O1` (racemic) [Example 273, 6-[2-Oxo-5-[2-[[rac-1,2-trans-1-amino-6-[(1-aminocyclopropyl)methoxy]-4-chloro-2,3-dihydro-1H-inden-2-yl]methylamino]ethyl]-1,3-oxazolidin-3-yl]-4H-pyrido[3,2-b][1,4]oxazin-3-one; formic acid], the IC50 amounted to 148 nM.
For `O=C1COc2ccc(N3CC(CCNCCC4Cc5cccc(Cl)c5C4)OC3=O)nc2N1` (stereo not shown) [Example 20, 6-[5-[2-[2-(4-chloro-2,3-dihydro-1H-inden-2-yl)ethylamino]ethyl]-2-oxo-1,3-oxazolidin-3-yl]-4H-pyrido[3,2-b][1,4]oxazin-3-one; formic acid] the value was 139 nM; for `N#Cc1cc(OC2CCNC2)cc2c1CC(CNCCC1CN(c3ccc4c(n3)NC(=O)CO4)C(=O)O1)C2` (stereo not shown) [Example 254, 2-[[2-[2-Oxo-3-(3-oxo-4H-pyrido[3,2-b][1,4]oxazin-6-yl)-1,3-oxazolidin-5-yl]ethylamino]methyl]-6-pyrrolidin-3-yloxy-2,3-dihydro-1H-indene-4-carbonitrile; formic acid], 188 nM; for `Cc1ncc(F)c2c1CC(N(C)CCCc1cn(-c3cnc4c(n3)NC(=O)CO4)c(=O)o1)C2` (stereo not shown) [Example 303, 6-[5-[3-[(4-Fluoro-1-methyl-6,7-dihydro-5H-cyclopenta[c]pyridin-6-yl)-methylamino]propyl]-2-oxo-1,3-oxazol-3-yl]-4H-pyrazino[2,3-b][1,4]oxazin-3-one; formic acid], 163 nM.
For `N#Cc1cccc2c1CC(CNC[C@@H](O)[C@H]1CN(c3ccc4c(c3)NC(=O)CO4)C(=O)O1)C2` (stereo partly drawn) [Example 61, 2-[[[(2R)-2-hydroxy-2-[(5R)-2-oxo-3-(3-oxo-4H-1,4-benzoxazin-6-yl)-1,3-oxazolidin-5-yl]ethyl]amino]methyl]-2,3-dihydro-1H-indene-4-carbonitrile; formic acid] the value was 164 nM.
As for `N#Cc1cc(OCC2(N)CC2)cc2c1CC(CCNCC1CN(c3ccc4c(n3)NC(=O)CO4)C(=O)O1)C2` (stereo not shown) [Example 196, 6-((1-aminocyclopropyl)methoxy)-2-(2-(((2-oxo-3-(3-oxo-3,4-dihydro-2H-pyrido[3,2-b][1,4]oxazin-6-yl)oxazolidin-5-yl)methyl)amino)ethyl)-2,3-dihydro-1H-indene-4-carbonitrile], the half-inhibitory concentration (IC50) was < 97.7 nM.
For `COc1cnc(Cl)c2c1CC(CNCCC1CN(c3cnc4c(n3)NC(=O)CO4)C(=O)O1)C2` (stereo not shown) [Example 58, 6-[5-[2-[(1-chloro-4-methoxy-6,7-dihydro-5H-cyclopenta[c]pyridin-6-yl)methylamino]ethyl]-2-oxo-1,3-oxazolidin-3-yl]-4H-pyrazino[2,3-b][1,4]oxazin-3-one; formic acid], the IC50 amounted to 190 nM.
